The values that follow come from patent EP2562249A1, “Engineered host cells and methods for the production of cis, cis-muconic acid” (Helmholtz-Zentrum für Infektionsforschung GmbH, priority 2011, dated 2013).

The subject of data set [1] is P. putida KT2440. Briefly: Growth in the presence of the benzoate substrate analogues 3-FB or 3-CIB. It counts as cell-based. As to conditions: MM with 10 mM succinate and 1 mM benzoate, increasing concentrations; 3-FB as compared to 3-CIB. Here is the method: To determine the optimal concentrations of the substrate analogues, P. putida KT2440 was grown in MM with 10 mM succinate and 1 mM benzoate in the presence of increasing concentrations of 3-FB or 3-CIB. The accumulation of fluorocatechol derivatives is known to result in a violet coloration of the medium. When P. putida KT2440 was exposed to 3-FB or 3-CIB a violet coloration of the medium was observed. […] Therefore, two independent batch cultures of NTG-treated P. putida KT2440 cells were cultivated in the presence of 20 mM 3-FB. Batch culture 1 was grown for 14 hours and batch culture 2 for 24 hours, after which the cultures were plated. Individual colonies were screened for their ability to grow with benzoate as the sole source of carbon and energy. Three mutants that could no longer grow using benzoate were isolated from batch 1 and 84 mutants were isolated from batch 2, which represented 0.1 % and 4.4 %, respectively, of the total amount of colonies that were screened. No mutants were found when the NTG-treated P. putida KT2440 cells were not exposed to 3-FB. All mutants accumulated cis, cis-muconate in the medium when grown with succinate in the presence of benzoate. Therefore, the disability of the further conversion of 2-fluoro-cis, cis-muconate by the muconate lactonizing enzyme seems to have caused the selective advantage. […]

Data set [2] concerns the target T1, catA2 (catechol 1,2-dioxygenase) (Pseudomonas putida, UniProt Q88I35).
T1 sequence (Q88I35 1-304): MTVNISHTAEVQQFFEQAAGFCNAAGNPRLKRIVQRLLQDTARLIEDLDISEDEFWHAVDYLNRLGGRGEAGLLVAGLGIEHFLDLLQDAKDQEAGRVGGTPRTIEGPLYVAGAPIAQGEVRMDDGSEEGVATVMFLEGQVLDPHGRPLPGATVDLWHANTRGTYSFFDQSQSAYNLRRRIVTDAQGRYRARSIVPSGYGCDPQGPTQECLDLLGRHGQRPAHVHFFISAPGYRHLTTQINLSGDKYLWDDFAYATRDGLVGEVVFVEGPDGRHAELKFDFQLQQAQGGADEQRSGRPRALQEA
Nature of the data set: catA2 activity assay: increase in cis, cis-muconate from catechol measured at A256 with purified His-tagged enzyme. In kind it is biochemical, P. putida KT2440. The source says:
(§1) Gene catA2 was amplified from the genome of P. putida KT2440 by PCR using the forward primer 5'- […]-'3 (SEQ ID No. 7) and the reverse primer 5'-[…]-'3 (SEQ ID No. 8) containing a NdeI and XhoI site, respectively. The PCR fragment was ligated into the pET-28a(+) expression vector (Novagen, USA). The catA2 insert was controlled by sequencing after amplification with the T7 and T7 term primer set (Eurofins MWG GmbH, Germany).
(§2) pET-28a(+) with and without the catA2 insert were electro transformed into E. coli BLN21 and plated on LB with kanamycin (50 µg/mL). Transformants containing the plasmid with and without catA2 were grown overnight in 25 mL LB with kanamycin (50 µg/mL) at 37 °C with shaking. […] The purification of CatA2 was monitored with SDS-PAGE and Westernblotting using His-Tag antibodies (Abcam, U. K.).
(§3) The activity of catA2 was assayed by measuring the increase in cis, cis-muconate concentration from catechol in a buffer containing 20 mM Tris-HCl, 0.125 M imidazole (pH 7.8) at A256 using an UV mc2® spectrophotometer (SAFAS, Monaco). In order to determine the km value of the enzyme, the conversion rate of catechol to cis, cis-muconate was measured at 10 different concentrations of catechol ranging between from 0.0001 to 0.05 mM. […] The values for Km, IC50, and Vmax were calculated by Graphpad Prism (Graphpad Software, Inc., USA).

Substrate in data set [3]: Oc1ccccc1O
The data set is described as above. The conditions noted are these: other: substrate catechol, 0.0001 to 0.05 mM, 20 mM Tris-HCl, 0.125 M imidazole, pH 7.8, 37.0 °C. In kind it is biochemical, P. putida KT2440.
Excerpt: as §1, §2, §3

In the case of `O=C(O)c1cccc(F)c1` [3-FB, 3-fluorobenzoate], the “Growth of P. putida KT2440” value in data set [1] was “more inhibited”.
In general, IC50 refers to the concentration that gives 50% inhibition. Low values mean greater potency, high ones weaker potency. What is called Ki is the dissociation constant of the complex between target and ligand, obtained from inhibition or displacement. In the case of `O=C(O)/C=C\C=C/C(=O)O` [cis, cis-muconate], in data set [2] (at a concentration of 0.05 mM catechol, cis, cis-muconate 0 to 0.2 mM), the IC50 amounted to 139 µM. The Ki in data set [2] (calculated from Km and IC50 using the Cheng-Prusoff equation) is 2.8 µM.

B1: catA2 (catechol 1,2-dioxygenase) (Pseudomonas putida KT2440) (protein)
chain: MTVNISHTAEVQQFFEQAAGFCNAAGNPRLKRIVQRLLQDTARLIEDLDISEDEFWHAVDYLNRLGGRGEAGLLVAGLGIEHFLDLLQDAKDQEAGRVGGTPRTIEGPLYVAGAPIAQGEVRMDDGSEEGVATVMFLEGQVLDPHGRPLPGATVDLWHANTRGTYSFFDQSQSAYNLRRRIVTDAQGRYRARSIVPSGYGCDPQGPTQECLDLLGRHGQRPAHVHFFISAPGYRHLTTQINLSGDKYLWDDFAYATRDGLVGEVVFVEGPDGRHAELKFDFQLQQAQGGADEQRSGRPRALQEA
A word on the Km: it is the substrate concentration at which the rate is half of its maximum. For B1, in data set [3], the Michaelis constant (Km) came out at 1 µM.
